Results from patent US6586204B2, “Apoptosis gene EI24, compositions, and methods of use” (Apoptosis Technology, Inc., priority 1996, dated 2003).

How the values were obtained:
EI24 mRNA = assay: Northern blot of E1A/ras transformed murine embryonic fibroblasts, EI24 probe; format: cell-based
Experimental: (§1) Northern blot showing induction of EI24 RNA by p53 in E1A/ras transformed murine embryonic fibroblasts (MEFs). 1.0 μg of poly-A^+ RNA was loaded per lane. p53^+/+ and p53^−/− MEFs were left untreated, or treated with 50 μM etoposide for 6 hours, as indicated (lanes 1-4). Alternately, p53^−/− MEFs expressing either empty vector (pBabe Puro), or a tamoxifen-regulatable p53 (p53ER™) were left untreated, or treated with 3.3 μM tamoxifen (TMX) for 16 hours (lanes 5-8). The northern blot was hybridized sequentially with probes for EI24, p21/WAF1 and tubulin.
E1A and ras transformed mouse embryo fibroblasts and expression of the p53-ER™ fusion protein. Stable cell lines of p53^+/+ and p53^−/− MEFs expressing the oncogenes E1A and T24 H-ras were generated as described previously (Lowe S. W., Jacks T., Housman D. E. and Ruley H. E. (1994) Proc. Natl. Acad. Sci. USA, 91, 2026-2030). The plasmid for expression of the p53ER™ fusion protein, pBabe Puro p53ER™ G525R, using the retroviral vector pBabe Puro (Morgenstern J. P. and Land H. (1990) Nucl. Acids Res., 18, 3587-3596), was received as a generous gift from Trevor Littlewood (Imperial Cancer Research Fund, London). In brief, this plasmid contains the ˜1.3 kb BamHI fragment of human p53 from pSV53her (Roemer K. and Friedmann T. (1993) Proc. Natl. Acad. Sci. USA, 90, 9252-9256) fused to the ligand-binding domain of the murine estrogen receptor carrying a point mutation at amino acid 525 that renders the receptor unable to bind estradiol but able to bind tamoxifen or 4-hydroxy tamoxifen (Danielian P., White R., Hoare S., Fawell S. and Parker M. (1993) Mol Endocrinol, 7, 232-240; Littlewood T. D., Hancock D. C., Danielian P. S., Parker M. G. and Evan G. I. (1995) NAR, 23, 1686-1690). For induction of wild-type p53 activity, p53ER™ transfected p53^−/− cells were treated with […] tamoxifen (Sigma). […]

[1] = system: 5 kb mRNA detected by 38T19 probe; assay: Northern blot of etoposide-treated 3T3 cells, 38T19 probe; format: cell-based, Murine; conditions: 50 μM etoposide, 6 to 11 hours after treatment
Experimental: Induction of the 2.4 kb mRNA appeared to be maximal by 6 hours after etoposide exposure, representing a 7-fold increase. […] The levels of this mRNA were highest in untreated cells, and decreased at 6 to 11 hours after etoposide treatment, corresponding to a 4-fold reduction.

p21/WAF1 mRNA = assay: Northern blot of E1A/ras transformed murine embryonic fibroblasts, p21/WAF1 probe; format: cell-based
Experimental: as §1
E1A and ras transformed mouse embryo fibroblasts and expression of the p53-ER™ fusion protein. Stable cell lines of p53^+/+ and p53^−/− MEFs expressing the oncogenes E1A and T24 H-ras were generated as described previously (Lowe S. W., Jacks T., Housman D. E. and Ruley H. E. (1994) Proc. Natl. Acad. Sci. USA, 91, 2026-2030). The plasmid for expression of the p53ER™ fusion protein, pBabe Puro p53ER™ G525R, using the retroviral vector pBabe Puro (Morgenstern J. P. and Land H. (1990) Nucl. Acids Res., 18, 3587-3596), was received as a generous gift from Trevor Littlewood (Imperial Cancer Research Fund, London). […]

NIH3T3 fibroblasts = assay: Etoposide exposure of asynchronously growing NIH3T3 fibroblasts, cell killing and microscopic observation; format: cell-based, Murine; conditions: 50 μM etoposide
[2] = system: 2.4 kb mRNA recognized by 11G10 (EI24); assay: Northern blot of etoposide-treated 3T3 cells, 11G10 probe; conditions: 50 μM etoposide

| SMILES | induction of EI24 mRNA (EI24 mRNA; etoposide 50 μM, 6 hours, E1A/ras-transformed p53+/+ cells) | induction of EI24 mRNA (EI24 mRNA; etoposide 50 μM, 6 hours, E1A/ras-transformed p53−/− cells) | reduction of 5 kb mRNA [1] [fold] | induction of WAF1 RNA (p21/WAF1 mRNA; etoposide, p53−/− MEFs, maximal level lower than in p53+/+ cells) | signs of apoptosis by microscopic observation (NIH3T3 fibroblasts; for at least 6 hours following exposure) | cell killing (NIH3T3 fibroblasts; within 24 hours, asynchronously growing NIH3T3 cells) | increase of 2.4 kb mRNA (EI24) ([2]; 3 hours post treatment) [fold] | increase of 2.4 kb mRNA (EI24), maximal induction ([2]; 6 hours after exposure) [fold] | induction of EI24 mRNA (EI24 mRNA; tamoxifen, p53−/− control cell line (pBabe Puro) with empty vector) | induction of WAF1 mRNA (p21/WAF1 mRNA; tamoxifen treatment, p53ER p53−/− cells) |
| --- | --- | --- | --- | --- | --- | --- | --- | --- | --- | --- |
| COc1cc([C@@H]2c3cc4c(cc3[C@@H](O[C@@H]3O[C@@H]5CO[C@@H](C)O[C@H]5[C@H](O)[C@H]3O)[C@H]3COC(=O)[C@H]23)OCO4)cc(OC)c1O [etoposide, Etoposide] | further induced | No induction of EI24 | 4 | WAF1 RNA was induced | no obvious signs of apoptosis | kill the majority of asynchronously growing cells | 4 | 7 | – | – |
| CC/C(=C(\c1ccccc1)c1ccc(OCCN(C)C)cc1)c1ccccc1 [tamoxifen] | – | – | – | – | – | – | – | – | No EI24 induction | strongly induced |
